In data set [1] the test system is Rhinovirus type 1 B (R 1112 strain). Nature of the data set: Inhibition of cytopathogenic effect of rhinovirus type 1 B in human fibroblast cultures. In kind it is cell-based, human rhinovirus type 1 B. Conditions: Enterovirus, human fibroblasts, 37° C., 3-4 days, prevention of cytopathogenic effect, read-out: Minimum inhibitory concentration, Rhinovirus type 1 B. The method, then:
(§1) The type 1 A (R 2060 strain) and type 1 B (R 1112 strain) human rhinoviruses have the property of forming foci of necrosis (cytopathogeniceffect) on single-layer cell cultures. The compounds of the formula (I), which prevent the formation of these foci, have been selected as active substances.
(§2) Decreasing concentrations of the same solution or suspension of the compound under test are added to fresh identical cell cultures, the highest concentration being the maximum non-cytotoxic concentration. About one hour after the compounds have been added, the cultures are inoculated with 0.2 cm^3 of a suitably diluted suspension of virus (in isotonic phosphate buffer), which is capable of destroying about 75% of cells (cytopathogenic effect). 5 Control cultures (without test compound) are also inoculated. All the cultures are then incubated at 37° C. in a "roller" tissue culture apparatus at the same time as 2 control cultures (without test compound or virus) which have received 0.2 cm^3 of isotonic phosphate buffer. 3-4 Days after the start of the experiment, the cytopathogenic effect of the virus is examined under a microscope. The active compounds are those which have prevented the appearance of the cytopathogenic effect, and those which have inhibited it by at least 50% are considered to be partially active.
(Cytopathic effects are the visible damage that an infection or toxin causes in cultured cells.)

Data set [2] in a line: in vitro. In kind it is cell-based. The settings on record: human, mcr-5 fibroblasts.
The test system of data set [3] is Rhinovirus type 1 A (R 2060 strain). Nature of the data set: Inhibition of cytopathogenic effect of rhinovirus type 1 A in human fibroblast cultures. It counts as cell-based, human rhinovirus type 1 A. The settings on record: Enterovirus, 37° C., 3-4 days; for inhibition at 15 µg/mL: Fibroblast, at 15 μg/cm^3, human fibroblasts, read-out: Inhibition of cytopathogenic effect, Rhinovirus type 1 A (printed in minimum inhibitory concentration column); for MIC: human fibroblasts, prevention of cytopathogenic effect, read-out: Minimum inhibitory concentration, Rhinovirus type 1 A. The method, then:
as §1, §2

The structures appear in SMILES notation. In brackets after ≈: the same amount, converted by molar mass. Some results are limits rather than exact numbers.

For `Clc1ncccc1N=C1SC[C@@H]2Cc3ccccc3CN12` [Compound 2, (S)-3-[(2-chloropyrid-3-yl)-imino]-1,5,10,10a-tetrahydrothiazolo[3,4-b]isoquinoline], the MIC in data set [1] was 0.016 µg/mL (≈ 0.0507 µM). Further, the MNTC in data set [2] worked out at 15 µg/mL. In data set [3], the inhibition at 15 µg/mL is at least 50%.

On to `c1cncc(N=C2SC[C@@H]3Cc4ccccc4CN23)c1` [Compound 1], for which the values for the MIC in data set [1] and in data set [3] were 0.15 µg/mL (≈ 0.533 µM) and 15 µg/mL (≈ 53.3 µM), respectively. Moreover, the MNTC in data set [2] was above 30 µg/mL.

In the case of `c1ccc2c(c1)C[C@H]1CSC(=Nc3cccc4cnccc34)N1C2` [Compound 5], the MIC in data set [1] and in data set [3] was 0.7 µg/mL (≈ 2.11 µM) in each case. The compound also came in with an MNTC in data set [2] above 60 µg/mL.

`COc1ncccc1N=C1SC[C@@H]2Cc3ccccc3CN12` [Compound 4, (S)-3-[(2-methoxypyrid-3-yl)-imino]-1,5,10,10a-tetrahydrothiazolo[3,4-b]isoquinoline]: the MIC in data set [1] is 1.5 µg/mL (≈ 4.82 µM). This compound also displayed an MNTC in data set [2] of 15 µg/mL. Moreover, the inhibition at 15 µg/mL in data set [3] was at least 50%.

Regarding `Cc1cc2c(N=C3SC[C@@H]4Cc5ccccc5CN34)cccc2cn1` [Compound 6, (S)-3-(3-methylisoquinol-5-yl)-imino-1,5,10,10a-tetrahydrothiazolo[3,4-b]isoquinoline], the MIC in data set [1] and in data set [3] was 1.5 µg/mL (≈ 4.34 µM) each time. For the same compound, the MNTC in data set [2] worked out at 30 µg/mL.

Take `Fc1ncccc1N=C1SC[C@@H]2Cc3ccccc3CN12` [Compound 3, (S)-3-[(2-fluoropyrid-3-yl)-imino]-1,5,10,10a-tetrahydrothiazolo[3,4-b]-isoquinoline]: the MIC stood at 0.016 µg/mL (≈ 0.0534 µM) in data set [1] and 15 µg/mL (≈ 50.1 µM) in data set [3]. The same compound gave an MNTC in data set [2] of 15 µg/mL.
